Source: patent US11420958B2, “Aryl and heteroaryl substituted indole compounds” (BRISTOL-MYERS SQUIBB COMPANY, priority 2017, dated 2022)

What was measured:
Assay type in all cases: cell-based
human TLR9 = human TLR9 (Homo sapiens (Human), UniProt Q9NR96); experiment: TLR9 inhibition reporter assay (HEK-Blue, SEAP); details: HEK-Blue cells overexpressing human TLR9, ODN2006 5 nM stimulation
How it was run: (§1)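 After 30 min room-temperature pre-incubation with compound (0.05 nM–50 μM), reporter HEK-Blue lines were activated by ODN2006 5 nM for TLR9, R848 15.9 μM for TLR8 or gardiquimod 7.5 μM for TLR7. SEAP detected after 22 h, 37 °C; inhibition scaled between agonist+DMSO wells and known-inhibitor control.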

human TLR8 = human TLR8 (Homo sapiens (Human), UniProt Q9NR97); experiment: TLR8 inhibition reporter assay (HEK-Blue, SEAP); details: HEK-Blue cells overexpressing human TLR8, R848 15.9 μM stimulation
Sequence of human TLR8 (Q9NR97 27-1041): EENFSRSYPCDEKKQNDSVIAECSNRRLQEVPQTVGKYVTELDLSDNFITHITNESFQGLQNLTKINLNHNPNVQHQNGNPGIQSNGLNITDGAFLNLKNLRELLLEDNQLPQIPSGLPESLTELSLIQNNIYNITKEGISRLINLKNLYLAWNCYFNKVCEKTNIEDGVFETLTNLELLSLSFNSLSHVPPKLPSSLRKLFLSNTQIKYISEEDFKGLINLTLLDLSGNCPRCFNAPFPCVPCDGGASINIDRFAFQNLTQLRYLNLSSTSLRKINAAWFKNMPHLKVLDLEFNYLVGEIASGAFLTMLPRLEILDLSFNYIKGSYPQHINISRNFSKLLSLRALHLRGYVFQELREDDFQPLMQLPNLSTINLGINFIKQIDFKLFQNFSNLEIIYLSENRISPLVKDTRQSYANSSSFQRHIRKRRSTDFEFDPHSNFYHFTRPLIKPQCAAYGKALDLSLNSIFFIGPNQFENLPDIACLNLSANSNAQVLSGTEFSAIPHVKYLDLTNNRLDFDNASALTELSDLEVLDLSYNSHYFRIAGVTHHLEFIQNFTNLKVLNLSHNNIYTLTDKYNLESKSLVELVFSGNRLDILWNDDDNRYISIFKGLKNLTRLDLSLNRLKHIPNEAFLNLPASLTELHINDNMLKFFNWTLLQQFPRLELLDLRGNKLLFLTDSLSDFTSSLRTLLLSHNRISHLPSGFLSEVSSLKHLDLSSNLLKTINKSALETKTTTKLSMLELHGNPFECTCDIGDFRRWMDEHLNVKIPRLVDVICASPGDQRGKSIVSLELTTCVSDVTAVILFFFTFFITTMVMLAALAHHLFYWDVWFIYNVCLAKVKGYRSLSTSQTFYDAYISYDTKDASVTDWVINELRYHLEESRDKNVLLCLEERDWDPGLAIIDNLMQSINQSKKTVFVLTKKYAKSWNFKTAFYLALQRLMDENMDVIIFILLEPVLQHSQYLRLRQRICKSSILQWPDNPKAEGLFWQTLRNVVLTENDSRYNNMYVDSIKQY
How it was run: as §1

human TLR7 = human TLR7 (Homo sapiens (Human), UniProt Q9NYK1); experiment: TLR7 inhibition reporter assay (HEK-Blue, SEAP); details: HEK-Blue cells overexpressing human TLR7, gardiquimod 7.5 μM stimulation
Sequence of human TLR7 (Q9NYK1 27-1049): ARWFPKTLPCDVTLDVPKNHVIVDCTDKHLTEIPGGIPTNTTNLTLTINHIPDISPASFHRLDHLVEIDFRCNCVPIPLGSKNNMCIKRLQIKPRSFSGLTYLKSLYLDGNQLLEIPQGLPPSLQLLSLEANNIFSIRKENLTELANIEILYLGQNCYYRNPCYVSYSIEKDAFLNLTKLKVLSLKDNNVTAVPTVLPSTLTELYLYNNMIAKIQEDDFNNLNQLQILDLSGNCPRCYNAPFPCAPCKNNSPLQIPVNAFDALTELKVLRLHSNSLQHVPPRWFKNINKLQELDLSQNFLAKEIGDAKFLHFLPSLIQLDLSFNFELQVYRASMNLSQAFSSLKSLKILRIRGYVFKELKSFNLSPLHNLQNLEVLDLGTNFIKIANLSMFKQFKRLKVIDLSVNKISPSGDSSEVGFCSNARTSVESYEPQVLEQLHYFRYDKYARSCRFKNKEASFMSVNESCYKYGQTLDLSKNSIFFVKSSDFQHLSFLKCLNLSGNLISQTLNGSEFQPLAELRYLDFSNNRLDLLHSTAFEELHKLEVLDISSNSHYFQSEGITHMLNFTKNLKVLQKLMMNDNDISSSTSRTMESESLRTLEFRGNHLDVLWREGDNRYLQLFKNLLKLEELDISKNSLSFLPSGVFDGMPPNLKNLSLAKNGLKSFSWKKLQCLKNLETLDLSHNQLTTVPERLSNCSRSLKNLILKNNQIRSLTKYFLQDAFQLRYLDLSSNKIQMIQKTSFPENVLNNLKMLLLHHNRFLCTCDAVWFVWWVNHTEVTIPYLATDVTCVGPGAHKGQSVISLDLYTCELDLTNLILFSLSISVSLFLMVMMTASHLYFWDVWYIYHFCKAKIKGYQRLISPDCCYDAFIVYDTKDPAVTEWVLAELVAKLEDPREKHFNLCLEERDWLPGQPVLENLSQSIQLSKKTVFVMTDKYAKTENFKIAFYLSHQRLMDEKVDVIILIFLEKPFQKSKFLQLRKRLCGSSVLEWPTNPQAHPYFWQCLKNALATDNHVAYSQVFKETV
How it was run: as §1

Sequence of human TLR9 (Q9NR96 26-1032): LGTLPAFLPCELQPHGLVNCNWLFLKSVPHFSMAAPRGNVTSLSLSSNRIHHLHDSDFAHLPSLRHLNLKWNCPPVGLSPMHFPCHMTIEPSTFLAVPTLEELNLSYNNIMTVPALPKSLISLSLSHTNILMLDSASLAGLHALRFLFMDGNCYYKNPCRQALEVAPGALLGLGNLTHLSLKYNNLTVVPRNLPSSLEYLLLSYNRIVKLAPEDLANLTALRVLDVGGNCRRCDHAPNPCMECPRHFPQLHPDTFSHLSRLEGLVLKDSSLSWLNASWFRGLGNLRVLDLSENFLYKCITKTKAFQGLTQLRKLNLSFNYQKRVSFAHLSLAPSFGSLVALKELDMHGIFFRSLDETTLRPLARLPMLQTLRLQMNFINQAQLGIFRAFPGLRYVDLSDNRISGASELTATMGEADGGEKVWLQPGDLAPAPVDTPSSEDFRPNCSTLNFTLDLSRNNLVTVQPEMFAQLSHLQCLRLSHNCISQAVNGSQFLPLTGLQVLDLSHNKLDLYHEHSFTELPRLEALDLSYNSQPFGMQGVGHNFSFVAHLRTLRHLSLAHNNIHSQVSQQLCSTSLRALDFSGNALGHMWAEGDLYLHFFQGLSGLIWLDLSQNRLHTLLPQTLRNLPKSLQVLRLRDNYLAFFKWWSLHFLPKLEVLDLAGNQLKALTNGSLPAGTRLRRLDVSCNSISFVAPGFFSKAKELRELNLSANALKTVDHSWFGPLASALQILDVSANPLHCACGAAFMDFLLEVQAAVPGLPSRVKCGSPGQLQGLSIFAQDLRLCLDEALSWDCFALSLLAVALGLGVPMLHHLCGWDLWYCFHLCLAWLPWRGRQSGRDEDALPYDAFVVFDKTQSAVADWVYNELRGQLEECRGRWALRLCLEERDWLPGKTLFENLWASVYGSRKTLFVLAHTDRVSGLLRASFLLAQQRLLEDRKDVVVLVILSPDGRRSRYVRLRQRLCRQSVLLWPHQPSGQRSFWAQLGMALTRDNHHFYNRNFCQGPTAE

Question: Cc1cc(-c2[nH]c3ccc(-c4cc5c(s4)CN(C(C)C)CC5)cc3c2C(C)C)cc(C)n1 [Example 325, 2-(2-(2,6-dimethylpyridin-4-yl)-3-isopropyl-1H-indol-5-yl)-6-isopropyl-4,5,6,7-tetrahydrothieno[2,3-c]pyridine] was tested. Which IC50 (human TLR9) did it give?
Answer: 282 nM

Question: What about the IC50 (human TLR8) of the same compound?
Answer: 0.5 nM

Question: What about the IC50 (human TLR7) of the same compound?
Answer: 11 nM

Question: Which results are given for Cc1cc(-c2[nH]c3ccc(-c4ccnc(N5CCN(C(C)C)CC5)c4)cc3c2C(C)C)cc(C)n1 [Example 326, 2-(2,6-dimethylpyridin-4-yl)-3-isopropyl-5-(2-(4-isopropylpiperazin-1-yl)pyridin-4-yl)-1H-indole]?
Answer: IC50 (human TLR9): 303 nM; IC50 (human TLR8): 13 nM; IC50 (human TLR7): 23 nM

Question: What does the source list for Cc1cc(-c2[nH]c3ccc(-c4nnc(C5CCCN(C(C)C)C5)o4)cc3c2CC(F)F)cc(C)n1 (stereo not drawn) [Example 327, 2-(3-(2,2-difluoroethyl)-2-(2,6-dimethylpyridin-4-yl)-1H-indol-5-yl)-5-(1-isopropylpiperidin-3-yl)-1,3,4-oxadiazole]?
Answer: IC50 (human TLR9): 216 nM; IC50 (human TLR8): 10 nM; IC50 (human TLR7): 26 nM

Question: For Cc1cc(-c2[nH]c3ccc(-c4nnc(C5CCCN(C(C)C)C5)o4)cc3c2CC(F)F)cc(C)n1 (stereo not drawn) [Example 328, 2-(3-(2,2-difluoroethyl)-2-(2,6-dimethylpyridin-4-yl)-1H-indol-5-yl)-5-(1-isopropylpiperidin-3-yl)-1,3,4-oxadiazole], which IC50 (human TLR9) is on record?
Answer: 206 nM

Question: And the IC50 (human TLR8)?
Answer: 30 nM

Question: And the IC50 (human TLR7)?
Answer: 48 nM

Question: For Cc1cc(-c2[nH]c3ccc(-c4nc5c(s4)CCN(CC(=O)N(C)C)C5)cc3c2C(C)C)cc(C)n1 [Example 329, 2-(2-(2-(2,6-dimethylpyridin-4-yl)-3-isopropyl-1H-indol-5-yl)-6,7-dihydrothiazolo[4,5-c]pyridin-5(4H)-yl)-N,N-dimethylacetamide], which IC50 (human TLR9) is on record?
Answer: 46700 nM

Question: And the IC50 (human TLR8)?
Answer: 3.3 nM

Question: And the IC50 (human TLR7)?
Answer: 20 nM

Question: How did the IC50 (human TLR9) turn out when CNC(=O)CN1CCc2cc(-c3ccc4[nH]c(-c5cc(C)nc(C)c5)c(C(C)C)c4c3)sc2C1 [Example 330, 2-(2-(2-(2,6-dimethylpyridin-4-yl)-3-isopropyl-1H-indol-5-yl)-4,7-dihydrothieno[2,3-c]pyridin-6(5H)-yl)-N-methylacetamide] was run?
Answer: 2210 nM

Question: And the IC50 (human TLR8)?
Answer: 16 nM

Question: And the IC50 (human TLR7)?
Answer: 23 nM

Question: With CNCC(=O)N1CCc2cc(-c3ccc4[nH]c(-c5cc(C)nc(C)c5)c(C(C)C)c4c3)sc2C1 [Example 331, 1-(2-(2-(2,6-dimethylpyridin-4-yl)-3-isopropyl-1H-indol-5-yl)-4,7-dihydrothieno[2,3-c]pyridin-6(5H)-yl)-2-(methylamino)ethan-1-one] as the compound, how does the IC50 (human TLR9) read?
Answer: 945 nM

Question: What about the IC50 (human TLR8) of the same compound?
Answer: 4.9 nM

Question: What about the IC50 (human TLR7) of the same compound?
Answer: 5.2 nM

Question: With Cc1cn2cc(-c3[nH]c4ccc(-c5ccc(N6CCN(C)CC6)nc5)cc4c3C(C)C)ccc2n1 [Example 333, 6-(3-isopropyl-5-(6-(4-methylpiperazin-1-yl)pyridin-3-yl)-1H-indol-2-yl)-2-methylimidazo[1,2-a]pyridine] as the compound, how does the IC50 (human TLR9) read?
Answer: 114 nM

Question: And the IC50 (human TLR8)?
Answer: 91 nM

Question: What about the IC50 (human TLR7) of the same compound?
Answer: 14 nM

Question: With Cc1cn2cc(-c3[nH]c4ccc(-c5ccc(N6CCNCC6)nc5)cc4c3C(C)C)ccc2n1 [Example 334, 6-(3-isopropyl-5-(6-(piperazin-1-yl)pyridin-3-yl)-1H-indol-2-yl)-2-methylimidazo[1,2-a]pyridine] as the compound, how does the IC50 (human TLR9) read?
Answer: 672 nM

Question: And the IC50 (human TLR8)?
Answer: 214 nM

Question: And the IC50 (human TLR7)?
Answer: 45 nM

Question: Cc1cc(-c2[nH]c3ccc(-c4ccc(N5CC(C)OC(C)C5)nc4)cc3c2C(C)C)cc(C)n1 (stereo not drawn) [Example 335, 4-(5-(2-(2,6-dimethylpyridin-4-yl)-3-isopropyl-1H-indol-5-yl)pyridin-2-yl)-2,6-dimethylmorpholine] was tested. Which IC50 (human TLR9) did it give?
Answer: 38100 nM

Question: What about the IC50 (human TLR8) of the same compound?
Answer: 106 nM

Question: And the IC50 (human TLR7)?
Answer: 166 nM

Question: Cc1cc(-c2[nH]c3ccc(-c4ccc(N5CCCC5)nc4)cc3c2C(C)C)cc(C)n1 [Example 336, 2-(2,6-dimethylpyridin-4-yl)-3-isopropyl-5-(6-(pyrrolidin-1-yl)pyridin-3-yl)-1H-indole] was tested. Which IC50 (human TLR9) did it give?
Answer: 2340 nM

Question: What about the IC50 (human TLR8) of the same compound?
Answer: 15 nM

Question: What about the IC50 (human TLR7) of the same compound?
Answer: 41 nM

Question: For Cc1cc(-c2[nH]c3ccc(-c4ccc(N5CCC(N(C)C)CC5)nc4)cc3c2C(C)C)cc(C)n1 [Example 337, 1-(5-(2-(2,6-dimethylpyridin-4-yl)-3-isopropyl-1H-indol-5-yl)pyridin-2-yl)-N,N-dimethylpiperidin-4-amine], which IC50 (human TLR9) is on record?
Answer: 220 nM

Question: And the IC50 (human TLR8)?
Answer: 4.9 nM

Question: What about the IC50 (human TLR7) of the same compound?
Answer: 6.7 nM

Question: For Cc1cc(-c2[nH]c3ccc(-c4ccc(N5CCC5)nc4)cc3c2C(C)C)cc(C)n1 [Example 338, 5-(6-(azetidin-1-yl)pyridin-3-yl)-2-(2,6-dimethylpyridin-4-yl)-3-isopropyl-1H-indole], which IC50 (human TLR9) is on record?
Answer: 46500 nM

Question: What about the IC50 (human TLR8) of the same compound?
Answer: 31 nM

Question: What about the IC50 (human TLR7) of the same compound?
Answer: 18 nM

Question: With Cc1cc(-c2[nH]c3ccc(-c4ccc(N5CCN(CCO)CC5)nc4)cc3c2C(C)C)cc(C)n1 [Example 339, 2-(4-(5-(2-(2,6-dimethylpyridin-4-yl)-3-isopropyl-1H-indol-5-yl)pyridin-2-yl)piperazin-1-yl)ethan-1-ol] as the compound, how does the IC50 (human TLR9) read?
Answer: 523 nM

Question: What about the IC50 (human TLR8) of the same compound?
Answer: 5.4 nM

Question: What about the IC50 (human TLR7) of the same compound?
Answer: 8.3 nM

Question: Which results are given for Cc1cc(-c2[nH]c3ccc(-c4nnc(C5CCCN(C(C)C)C5)[nH]4)cc3c2C(C)C)cc(C)n1 (stereo not drawn) [Example 340, 2-(2,6-dimethylpyridin-4-yl)-3-isopropyl-5-(5-(1-isopropylpiperidin-3-yl)-4H-1,2,4-triazol-3-yl)-1H-indole]?
Answer: IC50 (human TLR9): 262 nM; IC50 (human TLR8): 3.6 nM; IC50 (human TLR7): 4 nM

Question: Which IC50 (human TLR9) does the source give for Cc1cc(-c2[nH]c3ccc(-c4cc5c(s4)CN(C(=O)CN(C)C)CC5)cc3c2C(C)C)cc(C)n1 [Example 341, 2-(dimethylamino)-1-(2-(2-(2,6-dimethylpyridin-4-yl)-3-isopropyl-1H-indol-5-yl)-4,7-dihydrothieno[2,3-c]pyridin-6(5H)-yl)ethan-1-one] here?
Answer: 295 nM

Question: And the IC50 (human TLR8)?
Answer: 5.9 nM

Question: What about the IC50 (human TLR7) of the same compound?
Answer: 6.4 nM

Question: What does the source list for Cc1cc(-c2[nH]c3ccc(-c4cc5c(s4)CN(CC(=O)N(C)C)CC5)cc3c2C(C)C)cc(C)n1 [Example 342, 2-(2-(2-(2,6-dimethylpyridin-4-yl)-3-isopropyl-1H-indol-5-yl)-4,7-dihydrothieno[2,3-c]pyridin-6(5H)-yl)-N,N-dimethylacetamide]?
Answer: IC50 (human TLR9): 1330 nM; IC50 (human TLR8): 8.9 nM; IC50 (human TLR7): 19 nM

Question: Which results are given for Cc1cc(-c2[nH]c3ccc(-c4cc5c(s4)CN(Cc4c[nH]c(C)n4)CC5)cc3c2C(C)C)cc(C)n1 [Example 343, 2-(2-(2,6-dimethylpyridin-4-yl)-3-isopropyl-1H-indol-5-yl)-6-((2-methyl-1H-imidazol-4-yl)methyl)-4,5,6,7-tetrahydrothieno[2,3-c]pyridine]?
Answer: IC50 (human TLR9): 146 nM; IC50 (human TLR8): 1.3 nM; IC50 (human TLR7): 3.7 nM

Question: Cc1cc(-c2[nH]c3ccc(-c4ccnc(C5CCNCC5)c4)cc3c2C(C)C)cc(C)n1 [Example 344, 2-(2,6-dimethylpyridin-4-yl)-3-isopropyl-5-(2-(piperidin-4-yl)pyridin-4-yl)-1H-indole] was tested. Which IC50 (human TLR9) did it give?
Answer: 181 nM

Question: What about the IC50 (human TLR8) of the same compound?
Answer: 7.9 nM

Question: What about the IC50 (human TLR7) of the same compound?
Answer: 5 nM

Question: Cc1cc(-c2[nH]c3ccc(-c4ccnc(C5CCN(C(C)C)CC5)c4)cc3c2C(C)C)cc(C)n1 [Example 345, 2-(2,6-dimethylpyridin-4-yl)-3-isopropyl-5-(2-(1-isopropylpiperidin-4-yl)pyridin-4-yl)-1H-indole] was tested. Which IC50 (human TLR9) did it give?
Answer: 183 nM

Question: And the IC50 (human TLR8)?
Answer: 8.5 nM

Question: What about the IC50 (human TLR7) of the same compound?
Answer: 13 nM

Question: Which results are given for CNc1nnc(-c2ccc3[nH]c(-c4ccnc(C)c4)c(C(C)C)c3c2)o1 [Example 346, 5-(3-isopropyl-2-(2-methylpyridin-4-yl)-1H-indol-5-yl)-N-methyl-1,3,4-oxadiazol-2-amine]?
Answer: IC50 (human TLR9): > 50000 nM; IC50 (human TLR8): 32 nM; IC50 (human TLR7): 158 nM

Question: How did the IC50 (human TLR9) turn out when Cc1cc(-c2[nH]c3ccc(-c4cn5cc(C)nc5cc4C)cc3c2C(C)C)cc(C)n1 [Example 347, 6-(2-(2,6-dimethylpyridin-4-yl)-3-isopropyl-1H-indol-5-yl)-2,7-dimethylimidazo[1,2-a]pyridine] was run?
Answer: 592 nM

Question: And the IC50 (human TLR8)?
Answer: 6.9 nM

Question: What about the IC50 (human TLR7) of the same compound?
Answer: 6.6 nM

Question: Which results are given for Cc1cc(-c2[nH]c3ccc(-c4cn5cc(C)nc5cc4F)cc3c2C(C)C)cc(C)n1 [Example 348, 6-(2-(2,6-dimethylpyridin-4-yl)-3-isopropyl-1H-indol-5-yl)-7-fluoro-2-methylimidazo[1,2-a]pyridine]?
Answer: IC50 (human TLR9): 3640 nM; IC50 (human TLR8): 20 nM; IC50 (human TLR7): 3.7 nM

Question: What does the source list for Cc1cc(-c2[nH]c3ccc(-c4ccc(N)nn4)cc3c2C(C)C)cc(C)n1 [Example 349, 6-(2-(2,6-dimethylpyridin-4-yl)-3-isopropyl-1H-indol-5-yl)pyridazin-3-amine]?
Answer: IC50 (human TLR9): 2120 nM; IC50 (human TLR8): 5.6 nM; IC50 (human TLR7): 8.6 nM

Question: Which IC50 (human TLR9) does the source give for Cc1cc(-c2[nH]c3ccc(-c4csc(N5CCCCC5)n4)cc3c2C(C)C)cc(C)n1 [Example 350, 4-(2-(2,6-dimethylpyridin-4-yl)-3-isopropyl-1H-indol-5-yl)-2-(piperidin-1-yl)thiazole] here?
Answer: > 50000 nM

Question: And the IC50 (human TLR8)?
Answer: 685 nM

Question: What about the IC50 (human TLR7) of the same compound?
Answer: 742 nM

Question: How did the IC50 (human TLR9) turn out when Cc1cc(-c2[nH]c3ccc(-c4cc5c(s4)CN(C(=O)C[C@H](C)O)CC5)cc3c2C(C)C)cc(C)n1 [Example 351, (S)-1-(2-(2-(2,6-dimethylpyridin-4-yl)-3-isopropyl-1H-indol-5-yl)-4,7-dihydrothieno[2,3-c]pyridin-6(5H)-yl)-3-hydroxybutan-1-one] was run?
Answer: 32900 nM

Question: And the IC50 (human TLR8)?
Answer: 46 nM

Question: What about the IC50 (human TLR7) of the same compound?
Answer: 64 nM

Question: What does the source list for Cc1cc(-c2[nH]c3ccc(-c4cc5c(s4)CN(C(=O)C4CC(=O)N(C)C4)CC5)cc3c2C(C)C)cc(C)n1 (stereo not drawn) [Example 352, 4-(2-(2-(2,6-dimethylpyridin-4-yl)-3-isopropyl-1H-indol-5-yl)-4,5,6,7-tetrahydrothieno[2,3-c]pyridine-6-carbonyl)-1-methylpyrrolidin-2-one]?
Answer: IC50 (human TLR9): 20400 nM; IC50 (human TLR8): 49 nM; IC50 (human TLR7): 143 nM
